This is an account of results in US8674109B2, “Pesticidal compositions” (Dow AgroSciences, LLC., priority 2009, dated 2014).

Assay type in all cases: in vivo
For series [1], the system named is corn earworm (CEW; Helicoverpa zea: Lepidoptera). Briefly: Insecticidal test for corn earworm, 128-well diet tray assay. As for the experimental part: Insecticidal Test for Corn Earworm (Helicoverpa zea)
(§1) Bioassays on corn earworm (CEW; Helicoverpa zea: Lepidoptera) were conducted using a 128-well diet tray assay. Three to five second instar CEW larvae were placed in each well (3 mL) of the diet tray that had been previously filled with 1 mL of artificial diet to which 50 μg/cm^2 of the test compound (dissolved in 50 μL of 90:10 acetone-water mixture) had been applied (to each of eight wells) and then allowed to dry. Trays were covered with a clear self-adhesive cover, and held at 25° C., 14:10 light-dark for six days. Percent mortality was recorded for the larvae in each well; activity in the eight wells was then averaged.

The subject of series [2] is beet armyworm (BAW; Spodoptera exigua: Lepidoptera). Briefly: Insecticidal test for beet armyworm, 128-well diet tray assay. As for the experimental part:
Insecticidal Test for Beet Armyworm (Spodoptera exigua)
as §1, with “beet armyworm (BAW; Spodoptera exigua:” for “corn earworm (CEW; Helicoverpa zea:”, “BAW” for “CEW”

For series [3], the system named is green peach aphid (Myzus persicae). The series is described as follows: Insecticidal test for green peach aphid in foliar spray assay on cabbage seedlings. As for the experimental part:
Insecticidal Test for Green Peach Aphid (Myzus persicae) in Foliar Spray Assay
Cabbage seedlings grown in 3-inch pots, with 2-3 small (3-5 cm) true leaves, were used as test substrate. The seedlings were infested with 20-50 green peach aphids (wingless adult and nymph) one day prior to chemical application. Four pots with individual seedlings were used for each treatment. Compounds (2 mg) were dissolved in 2 mL of acetone/methanol (1:1) solvent, forming stock solutions of 1000 ppm. The stock solutions were diluted 5× with 0.025% Tween 20 in H2O to obtain the solution at 200 ppm. A hand-held Devilbiss sprayer was used for spraying a solution to both sides of cabbage leaves until runoff. Reference plants (solvent check) were sprayed with the diluent only. Treated plants were held in a holding room for three days at approximately 25° C. and 40% relative humidity (RH) prior to grading. Evaluation was conducted by counting the number of live aphids per plant under a microscope. Insecticidal activity was measured by using Abbott's correction formula are presented in Table 2: Corrected % Control=100*(X−Y)/X
where • X=No. of live aphids on solvent check plants • Y=No. of live aphids on treated plants

Turning to `CC(C)(C)OC(=O)Nc1ccc(-c2ncn(-c3ccc(OC(F)(F)C(F)(F)F)cc3)n2)cc1` [Compound 1, {4-[1-(4-pentafluoroethyloxyphenyl)-1H-[1,2,4]triazol-3-yl]-phenyl}-carbamic acid tert-butyl ester], the “% Mortality CEW 50 μg/cm^2” value in series [1] is recorded as “A (50-100)”. For the same molecule, the “% Mortality BAW 50 μg/cm^2” value in series [2] is “A (50-100)”. Moreover, in series [3], the “% Mortality GPA 200 ppm” value is recorded as “B (Less than 80)”.
Regarding `CO[C@@H]1O[C@@H](C)[C@H](OC)[C@@H](OC(=O)Nc2ccc(-c3ncn(-c4ccc(OC(F)(F)F)cc4)n3)cc2)[C@H]1OC` [Compound 2], in series [1], the “% Mortality CEW 50 μg/cm^2” value was “B (Less than 50)”. The “% Mortality BAW 50 μg/cm^2” value in series [2] is recorded as “A (50-100)”. For the same molecule, the “% Mortality GPA 200 ppm” value in series [3] was “B (Less than 80)”.
Take `CCOc1cnc(C(C)(C)OC(=O)Nc2ccc(-c3ncn(-c4ccc(OC(F)(F)F)cc4)n3)cc2)nc1` [Compound 3, {4-[1-(4-trifluoromethoxyphenyl)-1H-[1,2,4]triazol-3-yl]-phenyl}-carbamic acid 1-(5-ethoxy-pyrimidin-2-yl)-1-methyl-ethyl ester]: in series [1], the “% Mortality CEW 50 μg/cm^2” value was “B (Less than 50)”. The “% Mortality BAW 50 μg/cm^2” value in series [2] was “A (50-100)”. For the same molecule, in series [3], the “% Mortality GPA 200 ppm” value is on record as “B (Less than 80)”.
In the same order, the values of `CC1(OC(=O)Nc2ccc(-c3ncn(-c4ccc(OC(F)(F)F)cc4)n3)cc2)CCCCC1` [Compound 4] are “B (Less than 50)”, “B (Less than 50)” and “B (Less than 80)”.
In the same order, the values of `COCC(C)(C)OC(=O)Nc1ccc(-c2ncn(-c3ccc(OC(F)(F)F)cc3)n2)cc1` [Compound 5] are “A (50-100)”, “A (50-100)” and “B (Less than 80)”.
For `CCCC(C)(C)OC(=O)Nc1ccc(-c2ncn(-c3ccc(OC(F)(F)F)cc3)n2)cc1` [Compound 6], the “% Mortality CEW 50 μg/cm^2” value in series [1] is on record as “B (Less than 50)”. Further, the “% Mortality BAW 50 μg/cm^2” value in series [2] is given as “A (50-100)”. Also, in series [3], the “% Mortality GPA 200 ppm” value was “B (Less than 80)”.
On to `CCOC(=O)c1csc(C(=O)C(C)(C)OC(=O)Nc2ccc(-c3ncn(-c4ccc(OC(F)(F)F)cc4)n3)cc2)n1` [Compound 7], for which the “% Mortality CEW 50 μg/cm^2” value in series [1] is given as “B (Less than 50)”. Besides, the “% Mortality BAW 50 μg/cm^2” value in series [2] is listed as “B (Less than 50)”. Besides, in series [3], the “% Mortality GPA 200 ppm” value is reported as “B (Less than 80)”.
In the case of `CC(C)(OC(=O)Nc1ccc(-c2ncn(-c3ccc(OC(F)(F)F)cc3)n2)cc1)C(F)(F)F` [Compound 8], the “% Mortality CEW 50 μg/cm^2” value in series [1] is listed as “A (50-100)”. Moreover, the “% Mortality BAW 50 μg/cm^2” value in series [2] is recorded as “A (50-100)”. The “% Mortality GPA 200 ppm” value in series [3] is given as “B (Less than 80)”.
For the molecule `CCCCC(C)OC(=O)Nc1ccc(-c2ncn(-c3ccc(OC(F)(F)F)cc3)n2)cc1` (stereo not drawn) [Compound 9, {4-[1-(4-trifluoromethoxyphenyl)-1H-[1,2,4]triazol-3-yl]-phenyl}-carbamic acid 1-methyl-pentyl ester], in series [1], the “% Mortality CEW 50 μg/cm^2” value is on record as “A (50-100)”. The “% Mortality BAW 50 μg/cm^2” value in series [2] was “A (50-100)”. Further, the “% Mortality GPA 200 ppm” value in series [3] is “B (Less than 80)”.
On to `CC(C)OC(=O)Nc1ccc(-c2ncn(-c3ccc(OC(F)(F)C(F)(F)F)cc3)n2)cc1` [Compound 10], for which, in series [1], the “% Mortality CEW 50 μg/cm^2” value is on record as “B (Less than 50)”. Also, in series [2], the “% Mortality BAW 50 μg/cm^2” value was “A (50-100)”. For the same molecule, the “% Mortality GPA 200 ppm” value in series [3] was “B (Less than 80)”.
With `CC(C)(Cc1ccccc1)OC(=O)Nc1ccc(-c2ncn(-c3ccc(OC(F)(F)F)cc3)n2)cc1` [Compound 11, {4-[1-(4-trifluoromethoxyphenyl)-1H-[1,2,4]triazol-3-yl]-phenyl}-carbamic acid 1,1-dimethyl-2-phenyl-ethyl ester], the “% Mortality CEW 50 μg/cm^2” value in series [1] is recorded as “A (50-100)”. Besides, the “% Mortality BAW 50 μg/cm^2” value in series [2] is listed as “A (50-100)”. In addition, the “% Mortality GPA 200 ppm” value in series [3] is listed as “B (Less than 80)”.
`C#CC(C)(C)OC(=O)Nc1ccc(-c2ncn(-c3ccc(OC(F)(F)F)cc3)n2)cc1` [Compound 12, {4-[1-(4-trifluoromethoxyphenyl)-1H-[1,2,4]triazol-3-yl]-phenyl}-carbamic acid 1,1-dimethyl-prop-2-ynyl ester]: the “% Mortality CEW 50 μg/cm^2” value in series [1] is on record as “A (50-100)”. In series [2], the “% Mortality BAW 50 μg/cm^2” value was “A (50-100)”. Also, the “% Mortality GPA 200 ppm” value in series [3] is “B (Less than 80)”.
In the case of `C#CC(C)(C)OC(=O)Nc1ccc(-c2ncn(-c3ccc(C(F)(F)F)cc3)n2)cc1` [Compound 13, {4-[1-(4-trifluoromethylphenyl)-1H-[1,2,4]triazol-3-yl]-phenyl}-carbamic acid 1,1-dimethyl-prop-2-ynyl ester], the “% Mortality CEW 50 μg/cm^2” value in series [1] is “A (50-100)”. For the same molecule, the “% Mortality BAW 50 μg/cm^2” value in series [2] is on record as “A (50-100)”. Also, the “% Mortality GPA 200 ppm” value in series [3] was “B (Less than 80)”.
Turning to `CC(C)(C#N)OC(=O)Nc1ccc(-c2ncn(-c3ccc(OC(F)(F)F)cc3)n2)cc1` [Compound 14, {4-[1-(4-trifluoromethoxyphenyl)-1H-[1,2,4]triazol-3-yl]-phenyl}-carbamic acid cyano-dimethyl-methyl ester], the “% Mortality CEW 50 μg/cm^2” value in series [1] is reported as “B (Less than 50)”. Also, the “% Mortality BAW 50 μg/cm^2” value in series [2] was “B (Less than 50)”.
Consider `CC(OC(=O)Nc1ccc(-c2ncn(-c3ccc(OC(F)(F)F)cc3)n2)cc1)C1CC1` (stereo not drawn) [Compound 15, 4 {4-[1-(4-trifluoromethoxyphenyl)-1H-[1,2,4]triazol-3-yl]-phenyl}-carbamic acid 1-cyclopropyl-ethyl ester], for which the “% Mortality CEW 50 μg/cm^2” value in series [1] is “A (50-100)”. The “% Mortality BAW 50 μg/cm^2” value in series [2] is given as “A (50-100)”. Also, the “% Mortality GPA 200 ppm” value in series [3] is recorded as “B (Less than 80)”.
Regarding `CC(OC(=O)Nc1ccc(-c2ncn(-c3ccc(OC(F)(F)F)cc3)n2)cc1)C1CCCCC1` (stereo not drawn) [Compound 16], the “% Mortality CEW 50 μg/cm^2” value in series [1] is “B (Less than 50)”. In addition, in series [2], the “% Mortality BAW 50 μg/cm^2” value was “B (Less than 50)”. For the same molecule, the “% Mortality GPA 200 ppm” value in series [3] is “B (Less than 80)”.
As for `CCOC(=O)CC(C)OC(=O)Nc1ccc(-c2ncn(-c3ccc(OC(F)(F)F)cc3)n2)cc1` (stereo not drawn) [Compound 17], the “% Mortality CEW 50 μg/cm^2” value in series [1] was “A (50-100)”. The “% Mortality BAW 50 μg/cm^2” value in series [2] was “B (Less than 50)”. In addition, the “% Mortality GPA 200 ppm” value in series [3] is listed as “B (Less than 80)”.
For `COCCOCC(C)(C)OC(=O)Nc1ccc(-c2ncn(-c3ccc(OC(F)(F)F)cc3)n2)cc1` [Compound 18], in that order: “A (50-100)”, “A (50-100)” and “B (Less than 80)”.
Consider `C=CC(C)(C)OC(=O)Nc1ccc(-c2ncn(-c3ccc(OC(F)(F)F)cc3)n2)cc1` [Compound 19], for which the “% Mortality CEW 50 μg/cm^2” value in series [1] is recorded as “A (50-100)”. Moreover, the “% Mortality BAW 50 μg/cm^2” value in series [2] was “A (50-100)”. Besides, in series [3], the “% Mortality GPA 200 ppm” value is listed as “B (Less than 80)”.
As for `CCCCC(OC(=O)Nc1ccc(-c2ncn(-c3ccc(OC(F)(F)F)cc3)n2)cc1)C(=O)OCC` (stereo not drawn) [Compound 26, 2-{4-[1-(4-trifluoromethoxyphenyl)-1H-[1,2,4]triazol-3-yl]-phenylcarbamoyloxy}-hexanoic acid ethyl ester], in series [1], the “% Mortality CEW 50 μg/cm^2” value is given as “A (50-100)”. Moreover, the “% Mortality BAW 50 μg/cm^2” value in series [2] was “A (50-100)”.
Regarding `C[C@H](OC(=O)Nc1ccc(-c2ncn(-c3ccc(OC(F)(F)F)cc3)n2)cc1)c1ccccc1` [Compound 60], in series [1], the “% Mortality CEW 50 μg/cm^2” value is listed as “A (50-100)”. Moreover, the “% Mortality BAW 50 μg/cm^2” value in series [2] is given as “A (50-100)”.
Consider `C[C@@H](OC(=O)Nc1ccc(-c2ncn(-c3ccc(OC(F)(F)F)cc3)n2)cc1)c1ccccc1` [Compound 61], for which the “% Mortality CEW 50 μg/cm^2” value in series [1] was “A (50-100)”. The “% Mortality BAW 50 μg/cm^2” value in series [2] is listed as “A (50-100)”.
Take `O=C(Nc1ccc(-c2ncn(-c3ccc(OC(F)(F)F)cc3)n2)cc1)Oc1cccc(C(F)(F)F)c1` [Compound 125]: the “% Mortality GPA 200 ppm” value in series [3] is reported as “B (Less than 80)”.
Take `O=C(Nc1ccc(-c2ncn(-c3ccc(OC(F)(F)F)cc3)n2)cc1)Oc1ccc(C(F)(F)F)cc1` [Compound 126]: the “% Mortality GPA 200 ppm” value in series [3] is recorded as “B (Less than 80)”.
The same measure, in the same setting: next, `O=C(Nc1ccc(-c2ncn(-c3ccc(OC(F)(F)F)cc3)n2)cc1)Oc1ccc(F)cc1` [Compound 127]: “B (Less than 80)”; `CN(C(=O)OC(C)(C)C)c1ccc(-c2ncn(-c3ccc(OC(F)(F)F)cc3)n2)cc1` [Compound 131, tert-butyl methyl(4-(1-(4-(trifluoromethoxy)phenyl)-1H-1,2,4-triazol-3-yl)phenyl)carbamate]: “B (Less than 80)”.
